Assay results reported in patent publication US20120009280A1, “METHOD OF REDUCING THE RATE OF DEGRADATION OF A BIOLOGICAL MATERIAL” (Bio-Energy Ingredients Limited, priority 2009, published 2012).

Assays:
yeast = test: Yeast count of spent brewer's / wet distiller's grains stored at ambient temperature; format: cell-based
[1] = pH of suspensions of grain samples in distilled water or PBS; conditions: 1% (w/w) in distilled water
Protocol: The untreated sample (A) was compared visually against the corresponding quicklime-treated sample (B).
On Day 7, 10 g amounts of each sample were suspended in either 90 ml PBS or 90 ml sterile distilled water and shaken for 10 minutes. The pH of each suspension was then measured and compared.
On Day 9, 10 g of each sample was suspended in 90 ml PBS and shaken for 10 minutes. The pH was measured.

total micro-organism = test: Total microbial (plate) count of spent brewer's / wet distiller's grains stored at ambient temperature; format: cell-based; conditions: for preservation time with total microbial counts <10 cfu/g / preservation time with total microbial counts <100 cfu/g / preservation time with total microbial counts <1000 cfu/g: distiller's grains not de-watered, Examples 16-18
Source text: Samples of spent brewer's grains were drawn from the discharge line of a brewery in South Africa. The samples, packed in dry ice in a cold box, were transported over a distance of approximately 40 kilometres to a laboratory. At the laboratory, the samples were thoroughly mixed and initially split into a first portion (Portion 1) and a second portion (Portion 2). The second portion was about twice the size of the first. Portion 1 was left untreated. Material produced from Portion 1 and Portion 2 is designated below using the code “AR” (as received).
Portion 2 was placed on a clean, standard, laboratory screen deck with 1.4 mm apertures supported from below. As much water as possible was manually squeezed out with a clean flat plastic disc and the sample was then manually remixed after the squeezing. The squeezed material was then split into a third portion (Portion 3) and a fourth portion (Portion 4) of approximately the same size. Material produced from Portion 3 and Portion 4 is designated below using the code “SO” (squeezed).
Portion 4 was added to a high speed kitchen food-shredder and shredded for about two minutes. The shredded material was then returned to the 1.4 mm aperture screen and squeezed again, as described above, and manually remixed again after the second squeezing to produce a shredded and squeezed portion (Portion 5). Material produced from Portion 5 is designated below using the code “SH” (shredded).
Samples of Portion 1 (“AR”), Portion 3 (“SO”) and Portion 5 (“SH”) were then delivered to a microbiological testing facility about 15 kilometres from the treatment laboratory. Each was tested for initial total microbial, yeast and mould counts, respectively.
Separate untreated samples were similarly stored under insect-proof screens at ambient temperature for seven days (as shown in Tables 1 and 2). During the trial period the ambient temperature ranged from 11 to 33 degrees C.
After exposure to the environment for seven days, all of the samples were tested at a South African National Accreditation System (SANAS) approved microbiological testing facility. Each was tested for total micro-organism, yeast and mould counts to determine the affect of the various treatments.
Samples of spent brewer's grains were drawn from the discharge line of a brewery in South Africa.
At the laboratory, the samples were thoroughly mixed and initially split into a first portion (Portion 1) and a second portion (Portion 2). Portion 1 was left untreated. A sample of Portion 1, was delivered immediately to a microbiological testing facility about 15 kilometres away from the treatment laboratory and was tested for initial total microbial, yeast and mould counts, respectively.
Samples from Portion 2 were subjected to treatment with varying amounts of a powdered, commercially-available calcium oxide containing approximately 94% calcium oxide (CaO) as shown in Table 32. The treatments varied from 2.5 to 10% (w/w) calcium oxide addition. The samples were stored in batches (according to the calcium oxide treatment) under insect-proof screens at ambient temperature for fifty six days. […] During the trial period the ambient temperature ranged from 10 to 30 degrees C. As this period was the southern hemisphere spring/early summer, the humidity as well as ambient temperatures varied widely.
Samples from each treatment were drawn every seven days. No further calcium oxide treatment or agitation took place after the initial mix. In each case the entire sample was isolated and delivered to the microbiological testing facility.
(§1) In this trial the same source of wet distiller's grains (again with now partial water removal prior to treatment) was treated.
as §1

[Ca+2].[OH-].[OH-] [(CaOH)2 powder]
Yeast Count (yeast; dose 3.3% (w/w), week 0): <10 cfu/gram | Yeast Count (yeast; dose 3.3% (w/w), week 1): <10 cfu/gram | Yeast Count (yeast; dose 3.3% (w/w), week 2): <10 cfu/gram | Yeast Count (yeast; dose 3.3% (w/w), week 3): <10 cfu/gram | Yeast Count (yeast; dose 3.3% (w/w), week 4): <10 cfu/gram | Yeast Count (yeast; dose 3.3% (w/w), week 5): <10 cfu/gram | Yeast Count (yeast; dose 3.3% (w/w), week 6): <10 cfu/gram | Yeast Count (yeast; dose 3.3% (w/w), week 7): <10 cfu/gram | Yeast Count (yeast; dose 6.6% (w/w), week 0): <10 cfu/gram | Yeast Count (yeast; dose 6.6% (w/w), week 1): <10 cfu/gram | Yeast Count (yeast; dose 6.6% (w/w), week 3): <10 cfu/gram | Yeast Count (yeast; dose 6.6% (w/w), week 4): <10 cfu/gram | Yeast Count (yeast; dose 6.6% (w/w), week 5): <10 cfu/gram | Yeast Count (yeast; dose 6.6% (w/w), week 6): <10 cfu/gram | Yeast Count (yeast; dose 6.6% (w/w), week 7): <10 cfu/gram | Yeast Count (yeast; dose 6.6% (w/w), week 8): <10 cfu/gram | Yeast Count (yeast; dose 6.6% (w/w), week 9): <10 cfu/gram | pH ([1]; dose 3.3% (w/w), week 0): 11.78 | pH ([1]; dose 3.3% (w/w), week 1): 11.57 | pH ([1]; dose 3.3% (w/w), week 2): 8.69 | pH ([1]; dose 3.3% (w/w), week 3): 9.08 | pH ([1]; dose 3.3% (w/w), week 4): 8.45 | pH ([1]; dose 3.3% (w/w), week 5): 7.66 | pH ([1]; dose 3.3% (w/w), week 6): 9.32 | pH ([1]; dose 3.3% (w/w), week 7): 7.25 | pH ([1]; dose 3.3% (w/w), week 8): 9.29 | pH ([1]; dose 6.6% (w/w), week 0): 12.90 | pH ([1]; dose 6.6% (w/w), week 1): 12.30 | pH ([1]; dose 6.6% (w/w), week 2): 11.08 | pH ([1]; dose 6.6% (w/w), week 3): 11.78 | pH ([1]; dose 6.6% (w/w), week 4): 9.51 | pH ([1]; dose 6.6% (w/w), week 5): 7.68 | pH ([1]; dose 6.6% (w/w), week 6): 10.61 | pH ([1]; dose 6.6% (w/w), week 7): 7.25 | pH ([1]; dose 6.6% (w/w), week 8): 9.13 | pH ([1]; dose 6.6% (w/w), week 9): 8.84 | Total plate count (total micro-organism; dose 3.3% (w/w), week 0): 60 cfu/gram | Total plate count (total micro-organism; dose 3.3% (w/w), week 1): 12100 cfu/gram | Total plate count (total micro-organism; dose 3.3% (w/w), week 4): 1750 cfu/gram | Total plate count (total micro-organism; dose 3.3% (w/w), week 5): 20 cfu/gram | Total plate count (total micro-organism; dose 3.3% (w/w), week 6): <10 cfu/gram | Total plate count (total micro-organism; dose 3.3% (w/w), week 7): 101000 cfu/gram | Total plate count (total micro-organism; dose 3.3% (w/w), week 8): 3.20E+06 cfu/gram | Total plate count (total micro-organism; dose 6.6% (w/w), week 0): 70 cfu/gram | Total plate count (total micro-organism; dose 6.6% (w/w), week 1): 50 cfu/gram | Total plate count (total micro-organism; dose 6.6% (w/w), week 2): 160 cfu/gram | Total plate count (total micro-organism; dose 6.6% (w/w), week 3): 1550 cfu/gram | Total plate count (total micro-organism; dose 6.6% (w/w), week 4): 290 cfu/gram | Total plate count (total micro-organism; dose 6.6% (w/w), week 5): <10 cfu/gram | Total plate count (total micro-organism; dose 6.6% (w/w), week 6): <10 cfu/gram | Total plate count (total micro-organism; dose 6.6% (w/w), week 7): 5000 cfu/gram | Total plate count (total micro-organism; dose 6.6% (w/w), week 8): 960000 cfu/gram | Total plate count (total micro-organism; dose 6.6% (w/w), week 9): 1.24E+06 cfu/gram

[Ca+2].[OH-].[OH-] [calcium hydroxide]
preservation time with total microbial counts <10 cfu/g (total micro-organism; dose 3.3% w/w): ≧6 weeks | preservation time with total microbial counts <100 cfu/g (total micro-organism; dose 3.3% w/w): ≧6 weeks | preservation time with total microbial counts <1000 cfu/g (total micro-organism; dose 3.3% w/w): ≧6 weeks | preservation time with total microbial counts <10 cfu/g (total micro-organism; dose 6.6% w/w): ≧6 weeks | preservation time with total microbial counts <100 cfu/g (total micro-organism; dose 6.6% w/w): ≧6 weeks | preservation time with total microbial counts <1000 cfu/g (total micro-organism; dose 6.6% w/w): ≧6 weeks
